Test results: patent publication US10155027B2, “Alpha-galactosidase A and 1-deoxygalactonojirimycin co-formulation for the treatment of fabry disease” (Amicus Therapeutics, Inc., priority 2012, dated 2018)

Key:
[1] = Plasma PK of α-Gal A (JR-051) in WT mice following single IV infusion; format: in vivo; conditions: JR-051 1 mg/kg single IV infusion
Experimental: (§1) Table 1 describes the molar ratios of these compounds:
(§2) Plasma was collected at 0, 15, 30, 45, 60, and 90 min, and 24 hrs post-JR-051. Skin, heart, and kidney were collected 24 hrs post-JR-051. JR-051 plasma levels and tissue uptake were assessed by activity and Western blotting (see Methods section below). A comparison was made between JR-051 administered alone and JR-051 co-formulated with AT1001 groups.
Diluted plasma (1:50) in Lysis Buffer (˜10 μg total protein) was subjected to SDS-PAGE on 4-12% polyacrylamide gels (Invitrogen, Grand Island, N.Y.), transferred to nitrocellulose membranes (Invitrogen), and immunoblotted with rabbit anti-human α-Gal A primary antibody (1:2000 dilution; from Shire Pharmaceuticals, Cambridge, Mass.). Protein bands were detected using peroxidase-conjugated goat anti-rabbit secondary antibody (Jackson Immunosearch Labs, West Grove, Pa.) in combination with enhanced chemiluminescence (Pierce, Rockford, Ill.). Blots were scanned on an Image Station 4000R (Kodak, Rochester, N.Y.).

[2] = Tissue uptake of α-Gal A (JR-051) in WT mice following single IV infusion; format: in vivo; conditions: data not shown
Experimental: as §1, §2
A BCA Protein Assay (Pierce, Rockford, Ill.) was used according to the manufacturer's instructions to determine total protein concentration in tissue lysates. […] For tissue Westerns exactly same procedure was followed as described above for plasma except that 50 μg tissue lysate was used.

[3] = test system: GL-3; assay: GL-3 reduction in skin, heart and kidney of GLA KO mice, repeat IV bolus administration; format: in vivo; conditions: DGJ 0 mg/kg, 4 biweekly IV bolus
Experimental: Repeat administration of co-formulated product was tested in fourteen-week old GLA KO mice. The mice received four biweekly (once every two weeks) IV bolus injections of 0.5, 1 or 3 mg/kg α-Gal A (JR-051) alone, or co-formulated with 0.3, 1, 3 or 10 mg/kg of DGJ (AT1001). Plasma and tissue levels of α-Gal A, and tissue levels of GL-3 were measured.
Mouse tissues were homogenized in water (1:16.7 tissue:water) using a Fast Prep homogenizer (Pro Scientific, Thorofare, N.J.). Acetone:methanol (50:50) was added at 5× the volume of the homogenate. Samples were vortexed, re-homogenized in the Fast Prep system, and centrifuged at 10600 g for 10 minutes at room temperature. Each supernatant (200 μL of the upper organic portion) was prepared for solid phase extraction by addition of 200 μL dimethyl sulfoxide (DMSO), 50 μL lactosyl ceramide internal standard (from bovine buttermilk; Matreya, LLC, Pleasant Gap, Pa.) at a final concentration of 1.4 μg/mL, and 600 μL of water:methanol (13:87), followed by vortexing. Solid phase extraction was conducted on a pre-conditioned Bond Elut 40 μm, 100 mg C-18 column (Varian Inc, Palo Alto, Calif.) by washing with 67:23:10 methanol:acetone:water and elution with 1 mL of 9:1 acetone:methanol into silanized glass culture tubes containing 200 μL 0.2 mM sodium acetate in DMSO. Total GL-3 levels were determined from 20 μL of each sample extract by liquid chromatography-tandem mass spectroscopy (LC-MS/MS). LC was conducted using an acetone:methanol:acetonitrile (ACN) with sodium acetate binary mobile phase system (mobile phase A: 40:60 methanol:water with 0.1 mM sodium acetate; mobile phase B: 75:15:10 acetone:methanol:ACN with 0.1 mM sodium acetate) with a flow rate of 0.5 mL/min on a C18 column (Aqua 3 μm 100×3.0 mm, 125 A, Phenomenex, Torrance, Calif.). The final GL-3 elution condition was 90% mobile phase B. MS/MS analysis was carried out under positive ion mode (ESI+) and twelve different isoforms of GL-3 [C16:0, C18:0, C20:0, C22:1, C22:0, C23:0, C22:0(2OH), C24:2, C24:1, C24:0, C24:1(2OH), C24:0(2OH)] as well as internal standard were identified in each sample. The following transitions were monitored: m/z 1046.70→m/z 884.7 for C16:0; m/z 1074.8→m/z 912.8 for C18:0; m/z 1102.8→m/z 940.8 for C20:0; m/z 1128.8→m/z 966.8 for C22:1; m/z 1130.9→m/z 968.8 for C22:0; m/z 1144.9→m/z 982.8 for C23:0; m/z 1146.9→m/z 984.8 for C22:0(2OH); m/z 1154.9→m/z 992.8 for C24:2; m/z 1156.9→m/z 994.8 for C24:1; m/z 1158.9→m/z 996.9 for C24:0; m/z 1172.9→m/z 1010.8 for C24:1(2OH); m/z 1174.9→m/z 1012.8 for C24:0(2OH); and m/z 982.9→m/z 820.8 for the lactosyl ceramide internal standard. For quantitation, the area counts for each isoform were determined and then summed to obtain the total GL-3 area counts. The ratio of the total GL-3 area counts to that of the internal standard was determined and used to calculate the final concentration of GL-3 in each sample based on a linear least squares fit equation applied to an 11-point calibration curve prepared in DMSO. Total GL-3 measurements were normalized to the wet tissue weight of each sample.

[4] = molecular target: T1, α-Gal A (Homo sapiens, UniProt P06280); assay: α-Gal A stability in whole blood ex vivo at 37° C.; format: in vitro ADME; conditions: 5 nM and 50 nM α-Gal A formulated without DGJ
T1 construct: purchased JCR Pharmaceuticals Co. Ltd, (Japan) JR-051; host or cells: CHO cells
T1 sequence (P06280 32-429): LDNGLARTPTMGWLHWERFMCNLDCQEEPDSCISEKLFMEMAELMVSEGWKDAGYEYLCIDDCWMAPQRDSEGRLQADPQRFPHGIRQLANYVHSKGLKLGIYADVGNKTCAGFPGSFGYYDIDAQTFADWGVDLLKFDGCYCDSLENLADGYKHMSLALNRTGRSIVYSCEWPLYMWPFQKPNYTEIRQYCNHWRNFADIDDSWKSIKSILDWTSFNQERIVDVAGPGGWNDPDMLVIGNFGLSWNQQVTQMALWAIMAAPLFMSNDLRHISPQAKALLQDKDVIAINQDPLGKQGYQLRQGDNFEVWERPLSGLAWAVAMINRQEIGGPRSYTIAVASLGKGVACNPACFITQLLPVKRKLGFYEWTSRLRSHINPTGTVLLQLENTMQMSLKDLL
Experimental: The effect of co-formulating α-Gal A with DGJ on α-Gal A stability in blood ex vivo was examined. Time-dependent loss of α-Gal A activity in whole blood at 37° C. was determined. 5 nM and 50 nM α-Gal A was formulated with or without 10 μM DGJ.

[5] = test system: R301Q fibroblast cells derived from Fabry patients; assay: α-Gal A uptake and GL-3 reduction in R301Q Fabry patient fibroblasts; format: cell-based, human; conditions: 0.5 nM enzyme co-formulated with 0.1-100 μM DGJ vs alone
Experimental: The effect of co-formulating α-Gal A with DGJ on α-Gal A uptake and GL-3 reduction in R301Q and C52S fibroblast cells derived from Fabry patients was determined. 0.5 nM α-Gal A was tested alone or co-formulated with 0.1, 1.0, 10 or 100 μM DGJ. […] The graph bars represent the average of compiled data from 4 separate experiments.
Further reduction after co-incubation with DGJ is also similar between the two enzymes (˜40-50% of baseline). The graph bars represent the average of compiled data from 4 separate experiments.

JR-051: recombinant human α-Gal A produced in CHO cells transformed with an expression vector encoding the human α-Gal A gene (JCR Pharmaceuticals)
AUC [1]: 17960 nmol/mL | T1/2 [1]: 6.6 min | effect on α-Gal A uptake in skin [2]: no significant effect | GL-3% reduction in heart ([3]; α-Gal A 0.5 mg/kg): 72.1% | GL-3% reduction in kidney ([3]; α-Gal A 0.5 mg/kg): 42.7% | GL-3% reduction in skin ([3]; α-Gal A 0.5 mg/kg): 85.7% | GL-3% reduction in heart ([3]; α-Gal A 1 mg/kg): 82.7% | GL-3% reduction in kidney ([3]; α-Gal A 1 mg/kg): 54.9% | GL-3% reduction in skin ([3]; α-Gal A 1 mg/kg): 90.7% | GL-3% reduction in heart ([3]; α-Gal A 3 mg/kg): 93.7% | GL-3% reduction in kidney ([3]; α-Gal A 3 mg/kg): 69.5% | GL-3% reduction in skin ([3]; α-Gal A 3 mg/kg): 97.4% | half-life of α-Gal A in whole blood [4]: 4 to 5 h | increase of enzyme uptake by DGJ [5]: up to 3 fold

B1: Fabrazyme: Agalsidase beta, produced by recombinant DNA technology in a Chinese hamster ovary (CHO) cell line; Genzyme Corporation (protein, UniProt P06280 32-429, looked up)
Alpha-galactosidase A: LDNGLARTPTMGWLHWERFMCNLDCQEEPDSCISEKLFMEMAELMVSEGWKDAGYEYLCIDDCWMAPQRDSEGRLQADPQRFPHGIRQLANYVHSKGLKLGIYADVGNKTCAGFPGSFGYYDIDAQTFADWGVDLLKFDGCYCDSLENLADGYKHMSLALNRTGRSIVYSCEWPLYMWPFQKPNYTEIRQYCNHWRNFADIDDSWKSIKSILDWTSFNQERIVDVAGPGGWNDPDMLVIGNFGLSWNQQVTQMALWAIMAAPLFMSNDLRHISPQAKALLQDKDVIAINQDPLGKQGYQLRQGDNFEVWERPLSGLAWAVAMINRQEIGGPRSYTIAVASLGKGVACNPACFITQLLPVKRKLGFYEWTSRLRSHINPTGTVLLQLENTMQMSLKDLL
increase of enzyme uptake by DGJ [5]: up to 4.6 fold
